Several values for one entry are separate records, joined by “and”; a condition that tells them apart may be missing. Identical values can stand only once. Inconclusive results and toxic doses are left out. The calls were made as follows: active = survival T/C of 150% or more; inactive = T/C below 125% in these data.
Test system: P388 leukemia ip, CD2F1 mice, survival T/C
Test: NCI In Vivo Anticancer Drug Screen. Data for tumor model P388 Leukemia (intraperitoneal) in CD2F1 (CDF1) mice
Conditions: endpoint: median survival time, higher = longer survival
Summary of the method: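 Mice carrying the transplanted tumor received test compound or vehicle. Survival was recorded in each group, and the value is the treated-group measurement divided by that of the vehicle-treated control group.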

[1] = dose: 50.0 mg/kg/injection, schedule: Q01DX005 (ip), vehicle: saline with Tween-80
[2] = dose: 100.0 mg/kg/injection, schedule: Q01DX005 (ip), vehicle: saline with Tween-80
[3] = dose: 200.0 mg/kg/injection, schedule: Q01DX005 (ip), vehicle: saline with Tween-80

Measured: T/C

CN(C)c1ccc(/C=C/C2=[N+](C)c3ccccc3C2(C)C)cc1
inactive: dose: 0.03 mg/kg/injection, schedule: Q01DX009 (ip), vehicle: saline 110 % of control | dose: 0.07 mg/kg/injection, schedule: Q01DX009 (ip), vehicle: saline 97 % of control

NC(=S)c1ccc(C=Nc2ccccc2)cc1
inactive: dose: 50.0 mg/kg/injection, schedule: Q01DX001 (ip), vehicle: Klucel (hydroxypropylcellulose) (HPC) 101 % of control | dose: 100.0 mg/kg/injection, schedule: Q01DX001 (ip), vehicle: Klucel (hydroxypropylcellulose) (HPC) 99 % of control | dose: 200.0 mg/kg/injection, schedule: Q01DX001 (ip), vehicle: Klucel (hydroxypropylcellulose) (HPC) 100 % of control

O=C(O)c1cc2c3ccccc3ncc2c2ccccc12
inactive: dose: 100.0 mg/kg/injection, schedule: Q01DX001 (ip), vehicle: saline with Tween-80 113 % of control | dose: 200.0 mg/kg/injection, schedule: Q01DX001 (ip), vehicle: saline with Tween-80 100 % of control | dose: 400.0 mg/kg/injection, schedule: Q01DX001 (ip), vehicle: saline with Tween-80 100 % of control

CNC(=O)N(C)CP(=O)(CN(C)C(=O)NC)CN(C)C(=O)NC
inactive: dose: 50.0 mg/kg/injection, schedule: Q01DX009 (ip), vehicle: saline 97 % of control | dose: 100.0 mg/kg/injection, schedule: Q01DX009 (ip), vehicle: saline 100 % of control | dose: 200.0 mg/kg/injection, schedule: Q01DX009 (ip), vehicle: saline 99 % of control

CC1(C)CN(Cc2ccccc2)CCOC1N1CCOCC1 (centres undefined)
inactive: [1] 93 % of control | [2] 101 % of control | [3] 115 % of control

Nc1ncnc2c1ncn2C1OC(COC2C(O)C(OC3OC(CO)C(O)C(O)C3N)C(O)C(OS(=O)(=O)O)C2OC(=O)[C@@H](N)CO)C(O)C1O (some centres undefined)
inactive: dose: 0.15 mg/kg/injection, schedule: Q01DX005 (ip), vehicle: Klucel (hydroxypropylcellulose) (HPC) 101 % of control | dose: 0.31 mg/kg/injection, schedule: Q01DX005 (ip), vehicle: Klucel (hydroxypropylcellulose) (HPC) 98 % of control | dose: 0.62 mg/kg/injection, schedule: Q01DX005 (ip), vehicle: Klucel (hydroxypropylcellulose) (HPC) 100 % of control | dose: 1.25 mg/kg/injection, schedule: Q01DX005 (ip), vehicle: Klucel (hydroxypropylcellulose) (HPC) 100 % of control and 94 % of control

Nc1nnc(-c2cc([N+](=O)[O-])cc([N+](=O)[O-])c2)o1
inactive: dose: 60.0 mg/kg/injection, schedule: Q01DX005 (ip), vehicle: saline with Tween-80 108 % of control | dose: 120.0 mg/kg/injection, schedule: Q01DX005 (ip), vehicle: saline with Tween-80 94 % of control | dose: 240.0 mg/kg/injection, schedule: Q01DX005 (ip), vehicle: saline with Tween-80 100 % of control

CCOC(=O)CCC(=O)Oc1cccc2c1C(=O)c1c(O)cccc1C2=O
inactive: dose: 60.0 mg/kg/injection, schedule: Q01DX005 (ip), vehicle: Klucel (hydroxypropylcellulose) (HPC) 91 % of control | dose: 120.0 mg/kg/injection, schedule: Q01DX005 (ip), vehicle: Klucel (hydroxypropylcellulose) (HPC) 95 % of control | dose: 240.0 mg/kg/injection, schedule: Q01DX005 (ip), vehicle: Klucel (hydroxypropylcellulose) (HPC) 97 % of control

C=CC1=C(C)C2=NC1=CC1=NC(=CC3=C(C)C4=C(O)C(C(=O)OC)C(=C5NC(=C2)C(C)C5CCC(=O)OC/C=C(\C)CCCC(C)CCCC(C)CCCC(C)C)C4=N3)C(CC)=C1C (centres undefined)
inactive: [1] 90 % of control | [2] 92 % of control | [3] 92 % of control

CCCCCCCCCCN1CCOCCOCCN(CCCCCCCCCC)CCOCCOCC1
inactive: dose: 1.56 mg/kg/injection, schedule: Q01DX005 (ip), vehicle: saline with Tween-80 105 % of control | dose: 3.13 mg/kg/injection, schedule: Q01DX005 (ip), vehicle: saline with Tween-80 100 % of control | dose: 6.25 mg/kg/injection, schedule: Q01DX005 (ip), vehicle: saline with Tween-80 107 % of control | dose: 12.5 mg/kg/injection, schedule: Q01DX005 (ip), vehicle: saline with Tween-80 99 % of control

C=C(Cl)C(=NC(C)(C)C)Nc1ccccc1C
inactive: dose: 1.56 mg/kg/injection, schedule: Q01DX005 (ip), vehicle: saline 100 % of control | dose: 3.12 mg/kg/injection, schedule: Q01DX005 (ip), vehicle: Klucel (hydroxypropylcellulose) (HPC) 103 % of control | dose: 3.12 mg/kg/injection, schedule: Q01DX005 (ip), vehicle: saline 102 % of control | dose: 6.25 mg/kg/injection, schedule: Q01DX005 (ip), vehicle: Klucel (hydroxypropylcellulose) (HPC) 107 % of control and 117 % of control | dose: 6.25 mg/kg/injection, schedule: Q01DX005 (ip), vehicle: saline 109 % of control and 118 % of control | dose: 12.5 mg/kg/injection, schedule: Q01DX005 (ip), vehicle: Klucel (hydroxypropylcellulose) (HPC) 117 % of control | dose: 12.5 mg/kg/injection, schedule: Q01DX005 (ip), vehicle: saline 108 % of control | dose: 25.0 mg/kg/injection, schedule: Q01DX005 (ip), vehicle: Klucel (hydroxypropylcellulose) (HPC) 121 % of control

Source: PubChem BioAssay AID330 (DTP/NCI, 2004)
